According to patent US20230002359A1, “PESTICIDALLY ACTIVE FUSED BICYCLIC HETEROAROMATIC COMPOUNDS” (priority 2019, published 2023):

Experiments:
Format in all cases: in vivo
[1] = tested on: Diabrotica Balteata (Corn Root Worm); test: Example B1: Diabrotica balteata (corn root worm), maize sprouts sprayed, L2 larvae; details: 96 h, application rate of 200 ppm, 4 days after infestation, L2 larvae, read-out: control in at least one of the two categories (mortality or growth inhibition)
Summary of the method: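 Read-out is mortality plus growth inhibition relative to untreated controls, assessed 4 days after infestation. Sprouts resting on agar are sprayed with aqueous solutions derived from 10′000 ppm DMSO stocks and left to dry before L2 larvae (6 to 10 per well) are added.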

[2] = tested on: Chilo suppressalis (Striped Rice Stemborer); test: Example B3: Chilo suppressalis (striped rice stemborer), artificial diet, L2 larvae; details: 144 h, application rate of 200 ppm, 6 days after infestation, L2 larvae, read-out: control in at least one of the three categories (mortality, anti-feedant effect, or growth inhibition)
Summary of the method: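 Artificial diet treated with aqueous dilutions of DMSO stocks (10'000 ppm stock), dried, then infested with 6-8 L2 larvae per well. Mortality, anti-feeding and growth inhibition scored against untreated samples 6 days after infestation. Control counted when any category exceeds untreated.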

[3] = tested on: Plutella xylostella (Diamond Back Moth); test: Example B4: Plutella xylostella (diamond back moth), artificial diet, eggs, 24-well; details: 192 h, application rate of 200 ppm, 8 days after infestation, eggs, read-out: control in at least one of the two categories (mortality or growth inhibition)
Protocol: 24-well microtiter plates with artificial diet were treated with aqueous test solutions prepared from 10′000 ppm DMSO stock solutions by pipetting. After drying, Plutella eggs were pipetted through a plastic stencil onto a gel blotting paper and the plate was closed with it. The samples were assessed for mortality and growth inhibition in comparison to untreated samples 8 days after infestation.

[4] = tested on: Myzus persicae (Green Peach Aphid); test: Example B5: Myzus persicae (green peach aphid) feeding/contact activity, sunflower leaf discs; details: foliar, 144 h, application rate of 200 ppm, 6 days after infestation
Protocol: Sunflower leaf discs were placed onto agar in a 24-well microtiter plate and sprayed with aqueous test solutions prepared from 10′000 ppm DMSO stock solutions. After drying, the leaf discs were infested with an aphid population of mixed ages. The samples were assessed for mortality 6 days after infestation.

[5] = tested on: Myzus persicae (Green Peach Aphid); test: Example B6: Myzus persicae (green peach aphid) intrinsic activity, sucrose solution; details: 120 h, test rate of 12 ppm, 5 days after infestation, intrinsic activity, read-out: mortality
Summary of the method: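 Compounds from 10′000 ppm DMSO stocks were mixed into sucrose solution in 24-well plates sealed with Parafilm. Aphid-infested pea seedlings were set on the membrane and the plate inverted so aphids fed through it. Mortality scored 5 days after infestation.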

[6] = tested on: Spodoptera littoralis (Egyptian Cotton Leaf Worm); test: Example B7: Spodoptera littoralis (Egyptian cotton leaf worm), cotton leaf discs sprayed, L1 larvae; details: foliar, 72 h, application rate of 200 ppm, 3 days after infestation, L1 larvae, read-out: control in at least one of the three categories (mortality, anti-feedant effect, or growth inhibition)
Summary of the method: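 Leaf discs on agar sprayed with aqueous dilutions of 10′000 ppm DMSO stocks, dried, then infested with five L1 larvae. Mortality, anti-feeding and growth inhibition scored versus untreated 3 days after infestation; control given when any category exceeds untreated.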

[7] = tested on: Euschistus heros (Neotropical Brown Stink Bug); test: Example B2: Euschistus heros (neotropical brown stink bug), soybean leaves sprayed, N2 nymphs; details: 120 h, application rate of 200 ppm, 5 days after infestation, N2 nymphs, read-out: control in at least one of the two categories (mortality or growth inhibition)
Protocol: Soybean leaves on agar in 24-well microtiter plates were sprayed with aqueous test solutions prepared from 10′000 ppm DMSO stock solutions. After drying the leaves were infested with N2 nymphs. The samples were assessed for mortality and growth inhibition in comparison to untreated samples 5 days after infestation.

C[C@H](Nc1ncnc2c(C(F)(F)F)cc(Cl)cc12)c1ncnn1-c1ncccn1 [P.24, 6-chloro-N-[(1S)-1-(2-pyrimidin-2-yl-1,2,4-triazol-3-yl)ethyl]-8-(trifluoromethyl)quinazolin-4-amine]
≥ 80%: percent control (mortality or growth inhibition) at 200 ppm [1] | percent control (mortality, anti-feedant effect or growth inhibition) at 200 ppm [2] | percent control (mortality or growth inhibition) at 200 ppm [3] | mortality at 200 ppm [4] | mortality at 12 ppm [5] | percent control (mortality, anti-feedant effect or growth inhibition) at 200 ppm [6]

CC(Nc1nc(C(F)(F)F)nc2c(C(F)(F)F)cc(C(F)(F)F)cc12)c1ncnn1-c1ccc(C#N)cn1 (stereo not shown) [P.59, 6-[5-[1-[[2,6,8-tris(trifluoromethyl)quina-zolin-4-yl]amino]ethyl]-1,2,4-triazol-1-yl]pyridine-3-carbonitrile]
≥ 80%: mortality at 200 ppm [4]

C[C@@H](c1ncnn1-c1ncccn1)N(C)c1ncnc2c(OC(F)F)cc(Cl)cc12 [P.90, 6-chloro-8-(difluoromethoxy)-N-methyl-N-[(1S)-1-(2-pyrimidin-2-yl-1,2,4-triazol-3-yl)ethyl]quinazolin-4-amine]
≥ 80%: percent control (mortality or growth inhibition) at 200 ppm [1] | percent control (mortality or growth inhibition) at 200 ppm [7] | percent control (mortality, anti-feedant effect or growth inhibition) at 200 ppm [2] | percent control (mortality or growth inhibition) at 200 ppm [3] | mortality at 200 ppm [4] | mortality at 12 ppm [5]

CC(c1ncnn1-c1ncccn1)N(C)c1ncnc2c(C(F)(F)F)cc(Br)cc12 (stereo not shown) [P.127, 6-bromo-N-methyl-N-[1-(2-pyrimidin-2-yl-1,2,4-triazol-3-yl)ethyl]-8-(trifluoromethyl)quinazolin-4-amine]
≥ 80%: percent control (mortality or growth inhibition) at 200 ppm [1] | percent control (mortality, anti-feedant effect or growth inhibition) at 200 ppm [2] | percent control (mortality or growth inhibition) at 200 ppm [3] | mortality at 200 ppm [4] | mortality at 12 ppm [5] | percent control (mortality, anti-feedant effect or growth inhibition) at 200 ppm [6]

CC(c1ncnn1-c1ncccn1)N(C)c1ncnc2c(Cl)c(F)c(Cl)cc12 (stereo not shown) [P.165, 6,8-dichloro-7-fluoro-N-methyl-N-[1-(2-pyrimidin-2-yl-1,2,4-triazol-3-yl)ethyl]quinazolin-4-amine]
≥ 80%: mortality at 200 ppm [4]

C[C@@H](c1ncnn1-c1ccc(C#N)cn1)N(C)c1ncnc2c(C(F)(F)F)cc(I)cc12 [P.184, 6-[5-[(1S)-1-[[6-iodo-8-(trifluoromethyl)quinazolin-4-yl]-methyl-amino]ethyl]-1,2,4-triazol-1-yl]pyridine-3-carbonitrile]
≥ 80%: percent control (mortality or growth inhibition) at 200 ppm [1] | percent control (mortality, anti-feedant effect or growth inhibition) at 200 ppm [2] | percent control (mortality or growth inhibition) at 200 ppm [3] | mortality at 200 ppm [4] | mortality at 12 ppm [5]

CC(c1ncnn1-c1ccc(F)cn1)N(C)c1ncnc2c(C(F)(F)F)cc(Cl)cc12 (stereo not shown) [P.187, 6-chloro-N-[1-[2-(5-fluoro-2-pyridyl)-1,2,4-triazol-3-yl]ethyl]-N-methyl-8-(trifluoromethyl)quinazolin-4-amine]
≥ 80%: percent control (mortality or growth inhibition) at 200 ppm [1] | percent control (mortality or growth inhibition) at 200 ppm [7] | percent control (mortality, anti-feedant effect or growth inhibition) at 200 ppm [2] | percent control (mortality or growth inhibition) at 200 ppm [3] | mortality at 200 ppm [4] | mortality at 12 ppm [5]

CC(c1ncnn1-c1ccc(F)cn1)N(C)c1ncnc2c(C(F)(F)F)cc(Br)cc12 (stereo not shown) [P.188, 6-bromo-N-[1-[2-(5-fluoro-2-pyridyl)-1,2,4-triazol-3-yl]ethyl]-N-methyl-8-(trifluoromethyl)quinazolin-4-amine]
≥ 80%: percent control (mortality or growth inhibition) at 200 ppm [1] | percent control (mortality or growth inhibition) at 200 ppm [7] | percent control (mortality, anti-feedant effect or growth inhibition) at 200 ppm [2] | percent control (mortality or growth inhibition) at 200 ppm [3] | mortality at 200 ppm [4] | mortality at 12 ppm [5]

CC(c1ncnn1-c1ccc(C#N)cn1)N(C)c1ncnc2c(Br)cc(OC(F)(F)F)cc12 (stereo not shown) [P.217, 6-[5-[1-[[8-bromo-6-(trifluoromethoxy)quinazo-lin-4-yl]-methyl-amino]ethyl]-1,2,4-triazol-1-yl]pyridine-3-carbonitrile]
≥ 80%: percent control (mortality or growth inhibition) at 200 ppm [1] | percent control (mortality, anti-feedant effect or growth inhibition) at 200 ppm [2] | percent control (mortality or growth inhibition) at 200 ppm [3] | mortality at 200 ppm [4] | mortality at 12 ppm [5] | percent control (mortality, anti-feedant effect or growth inhibition) at 200 ppm [6]

CC(c1ncnn1-c1ccc(OC(F)F)cn1)N(C)c1ncnc2c(C(F)(F)F)cc(Cl)cc12 (stereo not shown) [P.236, 6-chloro-N-[1-[2-[5-(difluoromethoxy)-2-pyridyl]-1,2,4-triazol-3-yl]ethyl]-N-methyl-8-(trifluoromethyl)quinazolin-4-amine]
≥ 80%: percent control (mortality or growth inhibition) at 200 ppm [1] | percent control (mortality, anti-feedant effect or growth inhibition) at 200 ppm [2] | percent control (mortality or growth inhibition) at 200 ppm [3] | mortality at 200 ppm [4] | mortality at 12 ppm [5] | percent control (mortality, anti-feedant effect or growth inhibition) at 200 ppm [6]

CC(c1ncnn1-c1ncccn1)N(C)c1ncnc2c(Br)cc(Br)cc12 (stereo not shown) [P.258, 6,8-dibromo-N-methyl-N-[1-(2-pyrimidin-2-yl-1,2,4-triazol-3-yl)ethyl]quinazolin-4-amine]
≥ 80%: percent control (mortality or growth inhibition) at 200 ppm [1] | percent control (mortality, anti-feedant effect or growth inhibition) at 200 ppm [2] | percent control (mortality or growth inhibition) at 200 ppm [3] | mortality at 200 ppm [4] | mortality at 12 ppm [5] | percent control (mortality, anti-feedant effect or growth inhibition) at 200 ppm [6]

C[C@H](Nc1ncnc2c(I)cc(C(F)(F)F)cc12)c1ncnn1-c1ccc(C#N)cn1 [P.263, 6-[5-[(1S)-1-[[8-iodo-6-(trifluoromethyl)quinazolin-4-yl]amino]ethyl]-1,2,4-triazol-1-yl]pyridine-3-carbonitrile]
≥ 80%: percent control (mortality or growth inhibition) at 200 ppm [1] | percent control (mortality or growth inhibition) at 200 ppm [7] | percent control (mortality, anti-feedant effect or growth inhibition) at 200 ppm [2] | percent control (mortality or growth inhibition) at 200 ppm [3] | mortality at 12 ppm [5] | percent control (mortality, anti-feedant effect or growth inhibition) at 200 ppm [6]

CC(c1ncnn1-c1ccc(C#N)cn1)N(C)c1ncnc2c(Br)cc(C(F)(F)F)cc12 (stereo not shown) [P.266, 6-[5-[1-[[8-bromo-6-(trifluoromethyl)quinazolin-4-yl]-methyl-amino]ethyl]-1,2,4-triazol-1-yl]pyridine-3-carbonitrile]
≥ 80%: percent control (mortality or growth inhibition) at 200 ppm [1] | percent control (mortality or growth inhibition) at 200 ppm [7] | percent control (mortality, anti-feedant effect or growth inhibition) at 200 ppm [2] | percent control (mortality or growth inhibition) at 200 ppm [3] | mortality at 12 ppm [5] | percent control (mortality, anti-feedant effect or growth inhibition) at 200 ppm [6]

C[C@@H](c1ncnn1-c1ncccn1)N(CC1CC1)c1ncnc2c(Cl)cc(C(F)(F)F)cc12 [P.272, 8-chloro-N-(cyclopropylmethyl)-N-[(1S)-1-(2-pyrimidin-2-yl-1,2,4-triazol-3-yl)ethyl]-6-(trifluoromethyl)quinazolin-4-amine]
≥ 80%: percent control (mortality or growth inhibition) at 200 ppm [1] | percent control (mortality or growth inhibition) at 200 ppm [7] | percent control (mortality, anti-feedant effect or growth inhibition) at 200 ppm [2] | percent control (mortality or growth inhibition) at 200 ppm [3] | mortality at 12 ppm [5] | percent control (mortality, anti-feedant effect or growth inhibition) at 200 ppm [6]
